Source: patent US4156731A, “Heterocyclic oxime compounds and carbamoyloxime derivatives” (priority 1976, dated 1979)

Tests used:
Format in all cases: in vivo
Set-up in all cases: key: A: Excellent control; B: Partial control; C: No control
[1] = test system: southern armyworm (Prodenia Eridania, (Cram.)); test: Southern Armyworm Leaf Spray Test; conditions: larvae, 500 ppm leaf spray, three days
Method: (§1) Selected species of the new compounds were evaluated to determine their pesticidal activity against mites and certain insects, including anaphid, a caterpillar, a beetle and a fly.
(§2) Suspensions of the test compounds were prepared by dissolving one gram of compound in 50 milliliters of acetone in which had been dissolved 0.1 gram (10 percent of the weight of compound) of an alkylphenoxy polyethoxyethanol surfactant, as an emulsifying or dispersing agent. The resulting solution was mixed into 150 milliliters of water to give roughly 200 milliliters of a suspension containing the compound in finely divided form. The thus-prepared stock suspension contained 0.5 percent by weight of test compound. The test concentrations in parts per million by weight employed in the tests described hereinbelow were obtained by appropriate dilutions of the stock suspension with water. The test procedures were as follows:
Southern Armyworm Leaf Spray Test
Larvae of the southern armyworm (Prodenia Eridania, (Cram.), reared on Tendergreen bean plants at a temperature of 80°±5° F. and a relative humidity of 50±5 per cent, constituted the test insects.
The test compounds were formulated by diluting the stock suspension with water to give a suspension containing 500 parts of test compound per million parts of final formulation. Potted Tendergreen bean plants of standard height and age were placed on a revolving turntable and sprayed with […] of test compound formulation by use of a DeVilbiss spray gun set at 10 psig. air pressure.
This application, which lasted 25 seconds, was sufficient to wet plants to run-off. As a control, 100-110 milliliters of a water-acetone-emulsifier solution containing no test compound were also sprayed on infested plants. When dry, the paired leaves were separated and each one was placed in a 9 centimeter Petric dish lined with moistened filter paper. Five randomly selected larvae were introduced into each dish and the dishes were closed. The closed dishes were labeled and held at 80°-85° F. for three days. Although the larvae could easily consume the whole leaf within twenty-four hours, no more food was added. Larvae which were unable to move the length of the body, even upon stimulation by prodding, were considered dead. Per cent mortality was recorded for various concentration levels.
(§3) In these tests the pesticidal activity of the compounds against aphid, mite, Southern Armyworm, Mexican Bean Beetle, and house fly was rated as follows: […]

[2] = test system: bean aphid (Aphis fabae Scop.); test: Bean Aphid Foliage Spray Test; conditions: 500 ppm foliage spray, 24 hour holding period
Method: as §1, §2
Bean Aphid Foliage Spray Test
Adults and nymphal stages of the bean aphid (Aphis fabae Scop.) reared on potted dwarf nasturtium plants at 65°-70° F. and 50-70 per cent relative humidity, constituted the test insects. For testing purposes, the number of aphids per pot was standardized to 100-150 by trimming plants containing excess aphids.
The test compounds were formulated by diluting the stock suspension with water to give a suspension containing 500 parts of test compound per million parts of final formulation.
The potted plants (one pot per compound tested) infested with 100-150 aphids, were placed on a revolving turntable and sprayed with 100-110 milliliters of test compound formulation by use of a DeVilbiss spray gun set at 40 psig. air pressure. This application, which lasted 25 seconds, was sufficient to wet the plants to run-off. As a control, 100-110 milliliters of a water-acetone-emulsifier solution containing no test compound were also sprayed on infested plants. After spraying, the pots were placed on their sides on a sheet of white standard mimeograph paper which had been previously ruled to facilitate counting. Temperature and humidity in the test room during the 24 hour holding period were 65°-70° F. and 50-70 per cent, respectively. Aphids which fell into the paper and were unable to remain standing after being uprighted were considered dead. Aphids remaining on the plants wre observed closely for movement and those which were unable to move the length of the body upon stimulator by prodding were considered dead. Per cent mortality was recorded for various concentration levels.
as §3

[3] = test system: house flies (Musca domestica, L.); test: Fly Bait Test; conditions: adults, 500 ppm in sugar bait, twenty four hours
Method: as §1, §2
Four to six day old adult house flies (Musca domestica, L.) reared according to the specifications of the Chemical Specialities Manufacturing Association (Blue Book, McNair-Dorland Co., NY., 1954; pages 234-244, 261) under controlled conditions of 80°±5° F. and 50±5 per cent relative humidity, were the test insects. The flies were immobilized by anesthetizing with carbon dioxide and twenty five immobilized individuals, males and females, were transferred to a cage consisting of a standard food stainer about five inches in diameter which was inverted over a wrapping-paper-covered surface. The test compounds were formulated by diluting the stock suspension with a 10 per cent (by weight) sugar solution to give a suspension containing 500 parts of test compound per million parts of final formulation, by weight. Ten milliliters of the test formulation were added to a souffle cup containing a one inch square of an absorbent cotton pad. This bait cup was introduced and centered on the blotting paper under the food strainer prior to admitting the anesthetized flies. The caged flies were allowed to feed on the bait for twenty four hours, at a temperature of 80°±5° F. and the relative humidity of 50±5 per cent.
as §3

[4] = test system: Mexican bean beetle (Epilachna varivestis, Muls.); test: Mexican Bean Beetle Leaf Spray Test; conditions: fourth instar larvae, 500 ppm leaf spray, three days
Method: as §1, §2
Mexican Bean Beetle Leaf Spray Test
Fourth instar larvae of the Mexican bean beetle (Epilachna varivestis, Muls.), reared on Tendergreen bean plants at a temperature of 80°±5° F. and 50±5 per cent relative humidity, were the test insects.
The test compounds were formulated by diluting the stock suspension with water to give a suspension containing 500 parts of test compound per million parts of final formulation. Potted Tendergreen bean plants of standard height and age were placed on a revolving turntable and sprayed with 100-110 milliliters of test compound formulation by use of DeVilbiss spray gun set at 10 psig air pressure. This application, which lasted 25 seconds, was sufficient to wet plants to run-off. As a control, 100-110 milliliters of a water-acetone-emulsifier solution containing no test compound were also sprayed on infested plants. When dry, the paired leaves were separated and each was placed in a 9 centimeter Petri dish lined with moistened filter paper. Five randomly selected larvae were introduced into each dish, and the dishes were closed. The closed dishes were labeled and held at a temperature of […]. for three days. Although the larvae could easily consume the leaf within 24 to 48 hours, no more food was added. Larvae which were unable to move the length of the body, even upon stimulation, were considered dead.
as §3

[5] = test system: two spotted mite (Tetranychus urticae Koch); test: Mite Foliage Spray Test; conditions: 500 ppm foliage spray, six days
Method: as §1, §2
Adults and nymphal stages of the two spotted mite (Tetranychus urticae Koch), reared on Tendergreen bean plants at 80±5 per cent relative humidity, were the test organisms. Infested leaves from a stock culture were placed on the primary leaves of two bean plants six to eight inches in height, growing in a two-and-a-half inch clay pot. 150-200 mites, a sufficient number for testing, transferred from the excised leaves to the fresh plants in a period of twenty four hours. Following the twenty four hour transfer period, the excised leaves were removed from the infested plants. The test compounds were formulated by diluting the stock suspension with water to give a suspension with water to give a suspension containing 500 parts of test compound per million parts of final formulation. The potted plants (one pot per compound) were placed on a revolving turntable and sprayed with 100-110 milliliters of test compound formulation by use of a DeVilbiss spray gun set at 40 psig. air pressure. This application, which lasted for 25 seconds, was sufficient to wet the plants to run-off. As a control, 100-110 milliliters of a water solution containing acetone and emulsifier in the same concentrations as the test compound formulation, but containing no test compound, were also sprayed on infested plants. The sprayed plants were held at 80±5 per cent relative humidity for six days, after which a mortality count of motile forms were made. Microscopic examination for motile forms was made on the leaves of the test plants. Any individual which was capable of locomotion upon prodding, was considered living.
as §3

| Compound | Southern Armyworm pesticidal activity rating [1] | Bean Aphid pesticidal activity rating [2] | House-Fly pesticidal activity rating [3] | Mexican Bean Beetle pesticidal activity rating [4] | Mite pesticidal activity rating [5] |
| --- | --- | --- | --- | --- | --- |
| CCCCN=C1SC(=NOC(=O)N(C)SC(Cl)(Cl)Cl)C(C)(C)S1 [LIII] | C | A | A | A | A |
| CCCCN=C1SC(=NOC(=O)NC)C(C)(C)S1 [LII] | B | A | A | A | C |
| CNC(=O)ON=C1SC(=NC2CCCCC2)SC1(C)C [LIV] | C | A | A | B | B |
| CNC(=O)ON=C1SC(=NS(=O)(=O)c2ccc(C)cc2)SC1(C)C [LIX] | C | C | C | C | C |
| CN(SC(Cl)(Cl)Cl)C(=O)ON=C1SC(=NC(C)(C)C)SC1(C)C [LI] | C | A | A | A | B |
| CN(SC(Cl)(Cl)Cl)C(=O)ON=C1SC(=NS(C)(=O)=O)SC1(C)C [LVIII] | C | C | B | B | C |
| CNC(=O)ON=C1SC(=NS(C)(=O)=O)SC1(C)C [LVII] | B | B | B | B | C |
| CN(C)N=C1SC(=NOC(=O)N(C)SC(Cl)(Cl)Cl)C(C)(C)S1 [LVI] | A | A | A | A | A |
| CNC(=O)ON=C1SC(=C(C#N)C#N)SC1(C)C [LXII] | C | C | C | C | C |
| CN(SSC(C)(C)C)C(=O)ON=C1SC(=C(C#N)C#N)SC1(C)C [LXIV] | B | A | B | A | C |
| CNC(=O)ON=C1SC(=NC#N)SC1(C)C [LXIX] | C | C | C | C | C |
| CCOC(=O)C(C#N)=C1SC(=NOC(=O)NC)C(C)(C)S1 [LXI] | C | C | C | A | C |
| CNC(=O)ON=C1SC(=CC(C)=O)SC1(C)C [LXVIII] | A | A | A | A | C |
| CNC(=O)ON=C1SC(=C[N+](=O)[O-])SC1(C)C [LXVII] | A | B | A | A | C |
| CNC(=O)ON=C1SC(=C(C#N)c2ccccc2)SC1(C)C [LXVI] | C | C | C | B | C |
| CCOC(=O)C(C#N)=C1SC(=NOC(=O)N(C)SC(Cl)(Cl)Cl)C(C)(C)S1 [LXV] | C | B | A | A | C |
| CN(Sc1ccc(C(C)(C)C)cc1)C(=O)ON=C1SC(=C(C#N)C#N)SC1(C)C [LXXIII] | C | A | C | A | B |
| CN(SSc1ccc(C(C)(C)C)cc1)C(=O)ON=C1SC(=C(C#N)C#N)SC1(C)C [LXXII] | C | A | C | A | C |
